Results on 25 compounds are retold here after US8008303B2, “Biphenyl derivatives and their use in treating hepatitis C” (AstraZeneca AB, priority 2005, dated 2011).

Series [1] relates to HCV replicon cells Huh 9B. Put plainly: HCV replicon assay (luciferase readout). The series is classed as cell-based. The method, boiled down: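 Compounds, made up at twice final strength (final DMSO 1%), were added to subgenomic replicon cells one day after plating. Incubation then ran 72 h at 37 °C, 5% CO2, without G418. Replication was quantified as firefly luciferase luminescence in lysed cells, with cytotoxicity assessed on a duplicate clear plate.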
A general note: Replicon systems follow genome replication, usually without infectious particles.

Series [2] deals with HCV replicon cells Huh 9B. Format: cell-based.
Where [3] appears, read: Hepatitis C virus, 72 h, concentration reducing replicon level (luciferase activity) by 50% vs untreated cell control, 72 h incubation.
Setting [4] is: concentration reducing total cell area by 50% relative to DMSO controls, methylene blue, absorbance 620 nm, 72 h incubation.

Where two headings read alike, the source gives them in different places. Some results are limits rather than exact numbers.

A word on the IC50: it is the concentration that gives 50% inhibition. Low readings indicate greater potency in that assay, high ones weaker potency in that assay. With `CCC1(c2ccc(NC(=O)c3ccc(-c4cc(C(=O)Nc5ccc(N6CCOCC6)cc5)ccc4C)cc3)cc2)CCC(O)NC1=O` (centres unmarked) [Example 71, 6-Methyl-biphenyl-3,4′-dicarboxylic acid 4′-{[4-(3-ethyl-6-hydroxy-2-oxo-piperidin-3-yl)-phenyl]-amide} 3-[(4-morpholin-4-yl-phenyl)-amide]], the IC50 in series [1] was below 1000 nM. Besides, the TD50 result in series [2] was “* (key: * < 50 μM; ** > 50 μM)”.

Compound `Cc1ccc(C(=O)Nc2ccc(N3CCOCC3)cc2)cc1-c1ccc(NC(=O)c2ccc(N3CCOCC3)cc2)cc1` [Example 119, 6-Methyl-4′-(4-morpholin-4-yl-benzoylamino)-biphenyl-3-carboxylic acid (4-morpholin-4-yl-phenyl)-amide] gave an IC50 in series [1] (setting [3]) of 1000 to 5000 nM. Also, in series [2] (setting [4]), the TD50 result is “** (** > 50 μM)”.

`Cc1ccc(C(=O)Nc2ccc(N3CCOCC3)cc2)cc1-c1ccc(C(=O)Nc2cccc(Br)c2)cc1` [Example 1, 6-Methyl-biphenyl-3,4′-dicarboxylic acid 4′-[(3-bromo-phenyl)-amide] 3-[(4-morpholin-4-yl-phenyl)-amide]]: the IC50 in series [1] was in the range of 1000 to 5000 nM. Also, the TD50 entry in series [2] is “** (key: * < 50 μM; ** > 50 μM)”.

`CC(C)S(=O)(=O)N1CCN(Cc2ccc(NC(=O)c3ccc(-c4cc(NC(=O)NC5CCCCC5)ccc4Cl)cc3)cc2)CC1` [Example 254, 2′-Chloro-5′-(3-cyclohexyl-ureido)-biphenyl-4-carboxylic acid {4-[4-(propane-2-sulfonyl)-piperazin-1-ylmethyl]-phenyl}-amide] showed an IC50 in series [1] (setting [3]) below 1000 nM. Moreover, in series [2] (setting [4]), the TD50 entry is given as “* (* < 50 μM)”.

The compound `Cc1ccc(C(=O)Nc2ccc(N3CCOCC3)cc2)cc1-c1ccc(NC(=O)c2cccc(Br)c2)cc1` [Example 103, 4′-(3-Bromo-benzoylamino)-6-methyl-biphenyl-3-carboxylic acid (4-morpholin-4-yl-phenyl)-amide] had an IC50 in series [1] (setting [3]) of 1000 to 5000 nM. For the same compound, the TD50 entry in series [2] (setting [4]) is on record as “** (** > 50 μM)”.

For the compound `Cc1ccc(NC(=O)C2CC2)cc1-c1ccc(C(=O)Nc2cccc(CN(C)C)c2)cc1` [Example 225, 5′-(Cyclopropanecarbonyl-amino)-2′-methyl-biphenyl-4-carboxylic acid (3-dimethylaminomethyl-phenyl)-amide], the IC50 in series [1] (setting [3]) is above 5000 nM. In addition, the TD50 entry in series [2] (setting [4]) was “* (* < 50 μM)”.

For the compound `Cc1ccc(C(=O)Nc2ccc(N3CCOCC3)cc2)cc1-c1ccc(CNCCN(C)C)cc1` [Example 102, 4′-[(2-Dimethylamino-ethylamino)-methyl]-6-methyl-biphenyl-3-carboxylic acid (4-morpholin-4-yl-phenyl)-amide], the half-inhibitory concentration (IC50) in series [1] (setting [3]) is 1000 to 5000 nM. The TD50 entry in series [2] (setting [4]) is “* (* < 50 μM)”.

Take `CCCCS(=O)(=O)N1CCN(Cc2ccc(NC(=O)c3ccc(-c4cc(C(=O)Nc5ccc(N6CCOCC6)cc5)ccc4Cl)cc3)cc2)CC1` [Example 263, 6-Chloro-biphenyl-3,4′-dicarboxylic acid 4′-({4-[4-(butane-1-sulfonyl)piperazin-1-ylmethyl]-phenyl}-amide) 3-[(4-morpholin-4-yl-phenyl)-amide]]: the IC50 in series [1] was below 1000 nM. Moreover, the TD50 entry in series [2] is “* (key: * < 50 μM; ** > 50 μM)”.

For the compound `Cc1ccc(C(=O)Nc2ccc(C(=O)N3CCOCC3)cc2)cc1-c1ccc(C(=O)Nc2ccc(CN3CCS(=O)(=O)CC3)cc2)cc1` [Example 140, 6-Methyl-biphenyl-3,4′-dicarboxylic acid 4′-{[4-(1,1-dioxo-1lambda*6*-thiomorpholin-4-ylmethyl)-phenyl]-amide} 3-{[4-(morpholine-4-carbonyl) -phenyl]-amide}], in series [1], the concentration for half-maximal inhibition (IC50) is 1000 to 5000 nM. Moreover, in series [2], the TD50 result was “* (key: * < 50 μM; ** > 50 μM)”.

`CC(=O)Nc1ccc(NC(=O)c2ccc(-c3cc(NC(=O)c4ccc(N5CCOCC5)cc4)ccc3C)cc2)cc1` [Example 86, 2′-Methyl-5′-(4-morpholin-4-yl-benzoylamino)-biphenyl-4-carboxylic acid (4-acetylamino-phenyl)-amide]: in series [1] (setting [3]), the IC50 lay within 1000 to 5000 nM. For the same compound, the TD50 result in series [2] (setting [4]) is on record as “** (** > 50 μM)”.

With `Cc1ccc(NC(=O)C2CCCCC2)cc1-c1ccc(C(=O)Nc2ccc(CN(C)C)cc2)cc1` [Example 222, 5′-(Cyclohexanecarbonyl-amino)-2′-methyl-biphenyl-4-carboxylic acid (4-dimethylaminomethyl-phenyl)-amide], the IC50 in series [1] (setting [3]) was in the range of 1000 to 5000 nM. Further, the TD50 entry in series [2] (setting [4]) is recorded as “* (* < 50 μM)”.

Regarding `CCCS(=O)(=O)N1CCN(Cc2ccc(NC(=O)c3ccc(-c4cc(NC(=O)[C@@H]5CCCCN5)ccc4OC(F)(F)F)cc3)cc2)CC1` [Example 238, (S)-Piperidine-2-carboxylic acid (4′-{4-[4-(propane-1-sulfonyl)-piperazin-1-ylmethyl]-phenylcarbamoyl}-6-trifluoromethoxy-biphenyl-3-yl)-amide], the IC50 in series [1] (setting [3]) is below 1000 nM. The TD50 result in series [2] (setting [4]) is recorded as “* (* < 50 μM)”.

As to `O=C(Nc1ccc2cc[nH]c2c1)c1ccc(-c2cccc(C(=O)Nc3ccc(N4CCOCC4)cc3)c2)cc1` [Example 60, Biphenyl-3,4′-dicarboxylic acid 4′-[(1H-indol-6-yl)-amide] 3-[(4-morpholin-4-yl-phenyl)-amide]], the IC50 in series [1] was below 1000 nM. Also, the TD50 result in series [2] is given as “* (key: * < 50 μM; ** > 50 μM)”.

Compound `CC(=O)C(=O)Nc1ccc(C)c(-c2ccc(C(=O)Nc3ccc(CN4CCS(=O)(=O)CC4)cc3)cc2)c1` [Example 190, 2′-Methyl-5′-(2-oxo-propionylamino)-biphenyl-4-carboxylic acid [4-(1,1-dioxo-1lambda*6*-thiomorpholin-4-ylmethyl)-phenyl]-amide] yielded an IC50 in series [1] (setting [3]) below 1000 nM. Also, the TD50 result in series [2] (setting [4]) is “* (* < 50 μM)”.

As to `Cc1ccc(C(=O)Nc2ccc(N3CCOCC3)cc2)cc1-c1ccc(C(=O)Nc2cccc(F)c2)cc1` [Example 27, 6-Methyl-biphenyl-3,4′-dicarboxylic acid 4′-[(3-fluoro-phenyl)-amide] 3-[(4-morpholin-4-yl-phenyl)-amide]], the IC50 in series [1] fell in the range of 1000 to 5000 nM. The TD50 entry in series [2] is given as “** (key: * < 50 μM; ** > 50 μM)”.

Regarding `Cc1ccc(C(=O)Nc2ccc(N3CCOCC3)cc2)cc1-c1ccc(C(=O)Nc2ccc(-c3cc[nH]n3)cc2)cc1` [Example 56, 6-Methyl-biphenyl-3,4′-dicarboxylic acid 3-[(4-morpholin-4-yl-phenyl)-amide] 4′-{[4-(1H-pyrazol-3-yl)-phenyl]-amide}], the concentration for half-maximal inhibition (IC50) in series [1] was below 1000 nM. Moreover, in series [2], the TD50 result is given as “* (key: * < 50 μM; ** > 50 μM)”.

Take `Cc1ccc(NS(=O)(=O)c2ccc(Cl)cc2)cc1-c1ccc(C(=O)Nc2ccc(CN3CCS(=O)(=O)CC3)cc2)cc1` [Example 202, 5′-(4-Chloro-benzenesulfonylamino)-2′-methyl-biphenyl-4-carboxylic acid [4-(1,1-dioxo-1lambda*6*-thiomorpholin-4-ylmethyl)-phenyl]-amide]: in series [1] (setting [3]), the IC50 is 1000 to 5000 nM. Also, the TD50 entry in series [2] (setting [4]) was “** (** > 50 μM)”.

Take `Cc1ccc(C(=O)Nc2ccc(N3CCOCC3)cc2)cc1-c1ccc(C(=O)NCc2cccc(Cl)c2F)cc1` [Example 57, 6-Methyl-biphenyl-3,4′-dicarboxylic acid 4′-(3-chloro-2-fluoro-benzylamide) 3-[(4-morpholin-4-yl-phenyl)-amide]]: the IC50 in series [1] lay within 1000 to 5000 nM. The TD50 entry in series [2] is “** (key: * < 50 μM; ** > 50 μM)”.

Turning to `Cc1ccc(NC(=O)C2CC2)cc1-c1ccc(C(=O)Nc2ccc(CN3CCCC3)cc2)cc1` [Example 230, 5′-(Cyclopropanecarbonyl-amino)-2′-methyl-biphenyl-4-carboxylic acid (4-pyrrolidin-1-ylmethyl-phenyl)-amide], the half-maximal inhibitory concentration (IC50) in series [1] (setting [3]) was 1000 to 5000 nM. Moreover, the TD50 entry in series [2] (setting [4]) is “* (* < 50 μM)”.

`Cc1ccc(NC(=O)c2ccc(Br)cc2)cc1-c1ccc(C(=O)Nc2ccc3cn[nH]c3c2)cc1` [Example 211, 5′-(4-Bromo-benzoylamino)-2′-methyl-biphenyl-4-carboxylic acid (1H-indazol-6-yl)-amide] returned an IC50 in series [1] (setting [3]) of 1000 to 5000 nM. Moreover, the TD50 result in series [2] (setting [4]) is recorded as “* (* < 50 μM)”.

`Cc1ccc(NC(=O)c2cccn2C)cc1-c1ccc(C(=O)Nc2ccc(CN3CCS(=O)(=O)CC3)cc2)cc1` [Example 157, 1-Methyl-1H-pyrrole-2-carboxylic acid {4′-[4-(1,1-dioxo-1lambda*6*-thiomorpholin-4-ylmethyl)-phenylcarbamoyl]-6-methyl-biphenyl-3-yl}-amide] displayed an IC50 in series [1] (setting [3]) below 1000 nM. Moreover, in series [2] (setting [4]), the TD50 result is recorded as “* (* < 50 μM)”.

As to `CCCS(=O)(=O)N1CCN(Cc2ccc(NC(=O)c3ccc(-c4cc(C(=O)Nc5ccc(N6CCOCC6)c(F)c5)ccc4Cl)cc3)cc2)CC1` [Example 264, 6-Chloro-biphenyl-3,4′-dicarboxylic acid 3-[(3-fluoro-4-morpholin-4-yl-phenyl)-amide] 4′-({4-[4-(propane-1-sulfonyl)-piperazin-1-ylmethyl]-phenyl}-amide)], the IC50 in series [1] is below 1000 nM. The TD50 entry in series [2] (setting [4]) is “* (* < 50 μM)”.

`Cc1ccc(NC(=O)C2CCCCC2)cc1-c1ccc(C(=O)Nc2ccc(-n3cncn3)cc2)cc1` [Example 219, 5′-(Cyclohexanecarbonyl-amino)-2′-methyl-biphenyl-4-carboxylic acid (4-[1,2,4]triazol-1-yl-phenyl)-amide] gave an IC50 in series [1] (setting [3]) of 1000 to 5000 nM. Besides, the TD50 result in series [2] (setting [4]) is recorded as “* (* < 50 μM)”.

`Cc1ccc(C(=O)Nc2ccc(N3CCOCC3)cc2)cc1-c1ccc(C(=O)NCc2ccccc2Sc2ccccc2CO)cc1` [Example 49, 6-Methyl-biphenyl-3,4′-dicarboxylic acid 4′-[2-(2-hydroxymethyl-phenylsulfanyl)-benzylamide] 3-[(4-morpholin-4-yl-phenyl)-amide]] had an IC50 in series [1] below 1000 nM. Besides, the TD50 result in series [2] was “** (key: * < 50 μM; ** > 50 μM)”.

As to `Cc1cc(NC(=O)c2ccco2)ccc1-c1cccc(C(=O)Nc2ccc(N3CCOCC3)cc2)c1` [Example 114, Furan-2-carboxylic acid [2-methyl-3′-(4-morpholin-4-yl-phenylcarbamoyl)-biphenyl-4-yl]-amide], in series [1] (setting [3]), the IC50 was above 5000 nM. In addition, the TD50 result in series [2] (setting [4]) is on record as “* (* < 50 μM)”.
